One assay relates to SK-Br3 (ATCC: HTB-30). Description: Test of cancer cell growth inhibition (SRB), SK-Br3. The note with it: read-out: IC50 SK-Br-3.
Another assay relates to A431 (ATCC: CRL-1555). Put plainly: Test of cancer cell growth inhibition (SRB), A431. The note with it: read-out: IC50 A431.
Where [1] appears, read: Erb-B2 overexpressed SK-Br3, 72 hours, SRB.
[2] abbreviates: EGFR overexpressed A431, 72 hours, SRB.

Where two headings read alike, the source gives them in different places.

For the molecule `C=CC(=O)NCCCC(=O)Nc1ccc2ncnc(Nc3ccc(F)c(Cl)c3)c2c1` [Example 98, 4-acryloylamino-N-[4-(3-chloro-4-fluoro-phenylamino)-quinazolin-6-yl]-butyramide], the 50% inhibitory concentration (IC50) (as a rule, the concentration that inhibits the measured activity by half) in the assay on SK-Br3 (ATCC: HTB-30) (Homo sapiens, SK-BR-3, 72 h) stood at 184 nM; in the assay with A431 (ATCC: CRL-1555) (Homo sapiens, A-431, 72 h), 79 nM.

As to `COCCNCC(=O)NCCCC(=O)Nc1ccc2ncnc(Nc3ccc(OCc4cccc(F)c4)c(Cl)c3)c2c1` [Example 106, N-{4-[3-chloro-4-(3-fluoro-benzyloxy)-phenylamino]-quinazolin-6-yl}-4-[2-(2-methoxy-ethylamino)-acetylamino]-butyramide], the half-inhibitory concentration (IC50) came to 48 nM in the assay with SK-Br3 (ATCC: HTB-30) (Homo sapiens, SK-BR-3, 72 h) and 359 nM in the assay on A431 (ATCC: CRL-1555) (Homo sapiens, A-431, 72 h).

Take `CS(=O)(=O)CCNCC(=O)NCCCC(=O)Nc1ccc2ncnc(Nc3ccc(OCc4cccc(F)c4)c(Cl)c3)c2c1` [Example 107, N-{4-[3-chloro-4-(3-fluoro-benzyloxy)-phenylamino]-quinazolin-6-yl}-4-[2-(2-methanesulfonyl-ethylamino)-acetylamino]-butyramide]: the half-inhibitory concentration (IC50) in the assay with SK-Br3 (ATCC: HTB-30) (Homo sapiens, SK-BR-3, 72 h) came out at 51 nM; with A431 (ATCC: CRL-1555) (Homo sapiens, A-431, 72 h), 641 nM.

As for `CC(C)(C)OC(=O)NCCCCC(=O)Nc1ccc2ncnc(Nc3ccc(OCc4cccc(F)c4)c(Cl)c3)c2c1` [Example 114, (4-{4-[3-chloro-4-(3-fluoro-benzyloxy)-phenylamino]-quinazolin-6-ylcarbamoyl}-butyl)-carbamic acid t-butylester], the IC50 in the assay on SK-Br3 (ATCC: HTB-30) (Homo sapiens, SK-BR-3, 72 h) was found to be 216 nM; with A431 (ATCC: CRL-1555) (Homo sapiens, A-431, 72 h), 136 nM.

`C[S+]([O-])CC(=O)NCCC(=O)Nc1ccc2ncnc(Nc3ccc(OCc4cccc(F)c4)c(Cl)c3)c2c1` (stereo not shown) [Example 118, N-{4-[3-chloro-4-(3-fluoro-benzyloxy)-phenylamino]-quinazolin-6-yl}-3-(2-methanesulfinyl-acetylamino)-propionamide]: the IC50 in the assay with SK-Br3 (ATCC: HTB-30) (Homo sapiens, SK-BR-3, 72 h) is 161 nM; in the assay with A431 (ATCC: CRL-1555) (Homo sapiens, A-431, 72 h) it was 735 nM.

As for `O=C(CCNC(=O)C(F)(F)F)Nc1ccc2ncnc(Nc3ccc(OCc4cccc(F)c4)c(Cl)c3)c2c1` [Example 119, N-{4-[3-chloro-4-(3-fluoro-benzyloxy)-phenylamino]-quinazolin-6-yl}-3-(2,2,2-trifluoro-acetylamino)-propionamide], the IC50 in the assay on SK-Br3 (ATCC: HTB-30) (Homo sapiens, SK-BR-3, 72 h) turned out to be 69 nM; with A431 (ATCC: CRL-1555) (Homo sapiens, A-431, 72 h), 161 nM.

`CC(=O)OCC(=O)NCCC(=O)Nc1ccc2ncnc(Nc3ccc(OCc4cccc(F)c4)c(Cl)c3)c2c1` [Example 121, acetic acid (2-{4-[3-chloro-4-(3-fluoro-benzyloxy)-phenylamino]-quinazolin-6-ylcarbamoyl}-ethylcarbamoyl)-methylester]: the IC50 in the assay with SK-Br3 (ATCC: HTB-30) (Homo sapiens, SK-BR-3, 72 h) came out at 69 nM; with A431 (ATCC: CRL-1555) (Homo sapiens, A-431, 72 h), 616 nM.

Regarding `CN(C)CCOCC(=O)NCCC(=O)Nc1ccc2ncnc(Nc3ccc(OCc4cccc(F)c4)c(Cl)c3)c2c1` [Example 122, N-{4-[3-chloro-4-(3-fluoro-benzyloxy)-phenylamino]-quinazolin-6-yl}-3-[2-(2-dimethylamino-ethoxy)-acetylamino]-propionamide], the half-maximal inhibitory concentration (IC50) in the assay on SK-Br3 (ATCC: HTB-30) (Homo sapiens, SK-BR-3, 72 h) was determined as 85 nM; with A431 (ATCC: CRL-1555) (Homo sapiens, A-431, 72 h), 617 nM.

Consider `O=C(CCNC(=O)Nc1ccccc1)Nc1ccc2ncnc(Nc3ccc(OCc4cccc(F)c4)c(Cl)c3)c2c1` [Example 124, N-{4-[3-chloro-4-(3-fluoro-benzyloxy)-phenylamino]-quinazolin-6-yl}-3-(3-phenyl-ureido)-propionamide], for which the IC50 in the assay with SK-Br3 (ATCC: HTB-30) (Homo sapiens, SK-BR-3, 72 h) amounted to 107 nM; in the assay on A431 (ATCC: CRL-1555) (Homo sapiens, A-431, 72 h), 584 nM.

`O=C(CCNC(=O)NCc1ccco1)Nc1ccc2ncnc(Nc3ccc(OCc4cccc(F)c4)c(Cl)c3)c2c1` [Example 125, N-{4-[3-chloro-4-(3-fluoro-benzyloxy)-phenylamino]-quinazolin-6-yl}-3-(3-furan-2-ylmethyl-ureido)-propionamide]: the concentration for half-maximal inhibition (IC50) turned out to be 83 nM in the assay with SK-Br3 (ATCC: HTB-30) (Homo sapiens, SK-BR-3, 72 h) and 272 nM in the assay on A431 (ATCC: CRL-1555) (Homo sapiens, A-431, 72 h).

Turning to `COC(=O)NCCC(=O)Nc1ccc2ncnc(Nc3ccc(OCc4cccc(F)c4)c(Cl)c3)c2c1` [Example 126, (2-{4-[3-chloro-4-(3-fluoro-benzyloxy)-phenylamino]-quinazolin-6-ylcarbamoyl}-ethyl)-carbamic acid methylester], the half-maximal inhibitory concentration (IC50) with SK-Br3 (ATCC: HTB-30) (Homo sapiens, SK-BR-3, 72 h) came out at 91 nM; in the assay with A431 (ATCC: CRL-1555) (Homo sapiens, A-431, 72 h) it was 99 nM.

On to `O=C(CCNC(=O)OCc1ccccc1)Nc1ccc2ncnc(Nc3ccc(OCc4cccc(F)c4)c(Cl)c3)c2c1` [Example 128, (2-{4-[3-chloro-4-(3-fluoro-benzyloxy)-phenylamino]-quinazolin-6-ylcarbamoyl}-ethyl)-carbamic acid benzylester], for which the IC50 was 585 nM in the assay with SK-Br3 (ATCC: HTB-30) (Homo sapiens, SK-BR-3, 72 h) and 489 nM with A431 (ATCC: CRL-1555) (Homo sapiens, A-431, 72 h).

In the case of `COCC(=O)NCCC(=O)Nc1ccc2ncnc(Nc3ccc(OCc4ccccn4)c(Cl)c3)c2c1` [Example 129-2, N-{4-[3-chloro-4-(pyridin-2-ylmethoxy)-phenylamino]-quinazolin-6-yl}-3-(2-methoxy-acetylamino)-propionamide], the half-inhibitory concentration (IC50) stood at 345 nM in the assay with SK-Br3 (ATCC: HTB-30) (Homo sapiens, SK-BR-3, 72 h) and 490 nM in the assay on A431 (ATCC: CRL-1555) (Homo sapiens, A-431, 72 h).

Consider `COCC(=O)NCCC(=O)Nc1ccc2ncnc(Nc3ccc(OCc4cccnc4)c(Cl)c3)c2c1` [Example 132-2, N-{4-[3-chloro-4-(pyridin-3-ylmethoxy)-phenylamino]-quinazolin-6-yl}-3-(2-methoxy-acetylamino)-propionamide], for which the concentration for half-maximal inhibition (IC50) in the assay with SK-Br3 (ATCC: HTB-30) (Homo sapiens, SK-BR-3, 72 h) stood at 662 nM; with A431 (ATCC: CRL-1555) (Homo sapiens, A-431, 72 h), 880 nM.

As to `CS(=O)(=O)CC(=O)NCCC(=O)Nc1ccc2ncnc(Nc3ccc(OCc4cccnc4)c(Cl)c3)c2c1` [Example 133, N-{4-[3-chloro-4-(pyridin-3-ylmethoxy)-phenylamino]-quinazolin-6-yl}-3-(2-methanesulfonyl-acetylamino)-propionamide], the concentration for half-maximal inhibition (IC50) is 1110 nM in the assay with SK-Br3 (ATCC: HTB-30) (Homo sapiens, SK-BR-3, 72 h) and 7260 nM in the assay with A431 (ATCC: CRL-1555) (Homo sapiens, A-431, 72 h).

Turning to `C=CC(=O)NCCC(=O)Nc1ccc2ncnc(Nc3ccc(OCc4cccnc4)c(Cl)c3)c2c1` [Example 134, N-(2-{4-[3-chloro-4-(pyridin-3-ylmethoxy)-phenylamino]-quinazolin-6-ylcarbamoyl}-ethyl)-acrylamide], the IC50 in the assay on SK-Br3 (ATCC: HTB-30) (Homo sapiens, SK-BR-3, 72 h) is 4 nM; in the assay with A431 (ATCC: CRL-1555) (Homo sapiens, A-431, 72 h), 193 nM.

`COCCOCC(=O)NCCC(=O)Nc1ccc2ncnc(Nc3ccc(OCc4cccc(F)c4)c(Cl)c3)c2c1` [Example 135, N-{4-[3-chloro-4-(3-fluoro-benzyloxy)-phenylamino]-quinazolin-6-yl}-3-[2-(2-methoxy-ethoxy)-acetylamino]-propionamide]: the IC50 is 92 nM in the assay on SK-Br3 (ATCC: HTB-30) (Homo sapiens, SK-BR-3, 72 h) and 123 nM in the assay on A431 (ATCC: CRL-1555) (Homo sapiens, A-431, 72 h).

Take `Cc1oncc1C(=O)NCCC(=O)Nc1ccc2ncnc(Nc3ccc(OCc4cccc(F)c4)c(Cl)c3)c2c1` [Example 136]: the figures for the IC50 in the assay with SK-Br3 (ATCC: HTB-30) (setting [1]) and in the assay on A431 (ATCC: CRL-1555) (setting [2]) were 1710 nM and 828 nM, respectively.

Turning to `CSCC(=O)NCCCC(=O)Nc1ccc2ncnc(Nc3ccc(OCc4cccc(F)c4)c(Cl)c3)c2c1` [Example 137, N-{4-[3-chloro-4-(3-fluoro-benzyloxy)phenylamino]-quinazolin-6-yl}-4-(2-methanesulfanyl-acetylamino)-butyramide], the half-inhibitory concentration (IC50) in the assay with SK-Br3 (ATCC: HTB-30) (setting [1]) was found to be 44 nM; in the assay with A431 (ATCC: CRL-1555) (setting [2]) it was 100 nM.

Regarding `C[S+]([O-])CC(=O)NCCCC(=O)Nc1ccc2ncnc(Nc3ccc(OCc4cccc(F)c4)c(Cl)c3)c2c1` (stereo not shown) [Example 138, N-{4-[3-chloro-4-(3-fluoro-benzyloxy)-phenylamino]-quinazolin-6-yl}-4-(2-methanesulfinyl-acetylamino)-butyramide], the 50% inhibitory concentration (IC50) in the assay on SK-Br3 (ATCC: HTB-30) (Homo sapiens, SK-BR-3, 72 h) is 54 nM; with A431 (ATCC: CRL-1555) (Homo sapiens, A-431, 72 h), 102 nM.

The values above are taken from patent US8003658B2, “Quinazoline derivatives for inhibiting cancer cell growth and method for the preparation thereof” (Hanmi Holdings Co., Ltd., priority 2004, dated 2011).
